Results published in patent publication US9522909B2, “Thiazolidinedione derivatives, preparation thereof and use thereof in cancer treatment” (UNIVERSITE DE LORRAINE, priority 2012, dated 2016).
Where a name gives a salt, the structure may show the parent alone.

How the values were obtained:
Mia-PaCa = test: Antiproliferative activity (MTS) on Mia-PaCa; format: cell-based; details: Homo sapiens, MIA PaCa-2, 72 hours; for inhibition at 10 µM: 10^-5 M, triplicate, read-out: percentage of inhibition of cell growth, Mia-PaCa; for IC50: averages of two independent values
Procedure: (§1) Antiproliferative activity was measured for different compounds according to the invention by analysis of cytoxicity at 10^−5M on diverse cancer cell lines in DMSO in triplicate. For certain molecules and certain lines, the same procedure was used for determining the IC50 values (the required concentration in μM for inhibiting by half the proliferation of the cells), by conducting cytotoxicity tests at concentrations from 0.005 μM to 100 μM in duplicate. The procedure is the following. The cells of the relevant line are sown in the suitable medium (see Table III) added with L-glutamine, with 10% (v/v) of fetal calf serum, 100 IU of penicillin, 100 μg/mL of streptomycin and 1.5 μg/mL of fungizone and maintained under 5% of CO2 at 37° C. 96-well plates are sown with the required number of cells per well (see Table III) in 200 μL of medium. 24 hours later, the chemical compounds to be investigated, dissolved in DMSO, are added and the media are maintained for 72 hours under these conditions with a set final concentration in DMSO (1%). The controls received an equal volume of DMSO. The number of viable cells is measured at 490 nm with the MTS reagent (Promega, Madison Wis.). The IC50s are calculated as the concentrations of compounds inducing 50% inhibition of cell proliferation.
(§2) Tables IV and V below indicate the percentage of inhibition of cell growth, i.e. the percentage of dead cells after treatment with a compound dose of 10^−5 M. The tests were conducted in triplicate.

MDA435 = test: Antiproliferative activity (MTS) on MDA435; format: cell-based; details: Homo sapiens, 10^-5 M, 72 hours, triplicate, read-out: percentage of inhibition of cell growth, MDA435
Procedure: as §1, §2

HepG2 = test: Antiproliferative activity (MTS) on HepG2; format: cell-based; details: Homo sapiens, 72 hours; for inhibition at 10 µM: 10^-5 M, triplicate, read-out: percentage of inhibition of cell growth, HepG2; for IC50: averages of two independent values
Procedure: as §1, §2

HCT116 = test: Antiproliferative activity (MTS) on HCT116; format: cell-based; details: Homo sapiens, HCT-116; 10^-5 M, 72 hours, triplicate; read-out: percentage of inhibition of cell growth, HCT116
Procedure: as §1, §2

MDA231 = test: Antiproliferative activity (MTS) on MDA231; format: cell-based, human; details: for inhibition at 10 µM / IC50: Homo sapiens, MDA-MB-231, 72 hours; for inhibition at 10 µM: 10^-5 M, triplicate, read-out: percentage of inhibition of cell growth, MDA231; for IC50: averages of two independent values
Procedure: as §1, §2

LNCaP = test: Antiproliferative activity (MTS) on LNCaP; format: cell-based; details: Homo sapiens, 72 hours; for inhibition at 10 µM: 10^-5 M, triplicate, read-out: percentage of inhibition of cell growth, LNCaP; for IC50: averages of two independent values
Procedure: as §1, §2

PC3 = test: Antiproliferative activity (MTS) on PC3; format: cell-based; details: Homo sapiens, PC-3; 10^-5 M, 72 hours, triplicate; read-out: percentage of inhibition of cell growth, PC3
Procedure: as §1, §2

MCF7 = test: Antiproliferative activity (MTS) on MCF7; format: cell-based, human; details: for inhibition at 10 µM / IC50: Homo sapiens, MCF7, 72 hours; for inhibition at 10 µM: 10^-5 M, triplicate, read-out: percentage of inhibition of cell growth, MCF7; for IC50: averages of two independent values
Procedure: as §1, §2

[1] = test system: cryopreserved human hepatocytes (primary culture); test: Hepatocyte viability (MTT test) on suspended cryopreserved human hepatocytes; format: cell-based; details: 90 minutes incubation, relative to non treated cells
Procedure: The hepatocyte viability corresponds to the percentage of surviving suspended human hepatocytes after 90 minutes of incubation with the compounds of the invention present at a concentration of […].
Hepatocyte viability was measured for different compounds according to the invention with cryopreserved human hepatocytes (primary culture) suspended and distributed in 96-well plates with a density of 0.1×10^6 cells per well, in a […] culture medium per well (DMEM+gentamycin (50 mg/L)+insulin (4 mg/L)+dexamethasone (1 μM)) in a CO2/air (5%/95%) humidified atmosphere at 37° C. After 30 minutes for attaining equilibrium, […] of culture medium containing the tested compounds (dissolved in DMSO) or of medium only containing DMSO (final concentration of 0.1%) were added with stirring at 900 rpm.
Cytotoxicity is evaluated with an MTT (Thiazolyl Blue Tetrazolium Bromide) test. The tested compounds or the DMSO are left to incubate for 90 minutes, and then 10 μL of MTT at 10 mg/10 mL are added per well for 30 mins. Next, the plates are centrifuged for 10 minutes at 2,000 g, the MTT is removed and some DMSO is added in an amount of 100 μL per well. The plates are gently shaked and then absorbance is measured at 595 nm by means of a spectrophotometric reader of micro-plates. The hepatocyte viability measured here corresponds to the percentage of surviving hepatocytes after 90 minutes of incubation with the compounds tested at a concentration of 100 μM, relatively to non treated cells.
The same tests were conducted for a concentration of compounds at 200 μM.
The tests were conducted in two distinct campaigns. In both cases, troglitazone (K) was used as a reference molecule.

Compound	inhibition at 10 µM (Mia-PaCa)	IC50 (Mia-PaCa)	inhibition at 10 µM (MDA435)	inhibition at 10 µM (HepG2)	IC50 (HepG2)	inhibition at 10 µM (HCT116)	inhibition at 10 µM (MDA231)	IC50 (MDA231)	inhibition at 10 µM (LNCaP)	IC50 (LNCaP)	inhibition at 10 µM (PC3)	inhibition at 10 µM (MCF7)	IC50 (MCF7)	Hepatocyte viability % (100 μM) ([1]; Table II campaign)	Hepatocyte viability % (200 μM) ([1]; Table II campaign)	Hepatocyte viability % (100 μM) ([1]; Table I campaign)	Hepatocyte viability % (200 μM) ([1]; Table I campaign)	activity on non-hormono-dependent breast cancer cells (MDA-231), in words (MDA231)	activity on hormono-dependent breast cancer cells (MCF-7), in words (MCF7)
Cc1c(C)c2c(c(C)c1OC(=O)CCCCCCCN)CCC(C)(COc1ccc(/C=C3\SC(=O)N(C)C3=O)cc1)O2 (racemic) [Compound B, (±) 8-amino {2,5,7,8-tetramethyl-2-[4-(3-methyl-2,4-dioxo-thiazolidin-5-ylidenemethyl)-phenoxymethyl]-chroman-6-yl}octanoate trifluoroacetate]	101%	0.6 µM	100%	92%	1 µM	99%	101%	0.2 µM	91%	1 µM	98%	101%	0.9 µM	–	–	–	–	–	–
Cc1c(C)c2c(c(C)c1O)CCC(C)(COc1ccc(/C=C3\SC(=O)N(Cc4ccccc4)C3=O)cc1)O2 (stereo not drawn) [G]	–	–	–	–	–	–	–	–	–	–	–	–	–	87%	63%	–	–	–	–
Cc1c(C)c2c(c(C)c1O)CCC(C)(COc1ccc(CC3SC(=O)NC3=O)cc1)O2 (stereo not drawn) [K, troglitazone, reference compound]	2%	–	12%	14%	–	9%	12%	–	17%	–	14%	3%	–	52%	22%	79%	30%	–	–
CCN(CC)c1ccc2c(-c3ccc(NC(=S)NCCCCCCc4c(C)c(C)c5c(c4C)CCC(C)(COc4ccc(/C=C6\SC(=O)NC6=O)cc4)O5)cc3C(=O)O)c3ccc(=[N+](CC)CC)cc-3oc2c1 (racemic) [Compound Q, (±) (9-{2-carboxy-4-[3-(6-{2-[4-(2,4-dioxo-thiazolidin-5-ylidenemethyl)-phenoxy-methyl]-2,5,7,8-tetramethyl-chroman-6-yl}-hexyl)-thioureido]-phenyl}-6-diethylamino-xanthen-3-ylidene)-diethyl-ammonium]	70%	–	59%	75%	–	80%	71%	–	67%	–	60%	59%	–	–	–	–	–	–	–
Cc1c(C)c2c(c(C)c1O)CCC(C)(COc1ccc(/C=C3\SC(=O)N(C)C3=O)cc1)O2 (racemic) [J, (±) 5-[4-(6-Hydroxy-2,5,7,8-tetramethyl-chroman-2-ylmethoxy)-benzylidene]-3-methyl-thiazolidine-2,4-dione]	20%	24.5 µM	5%	40%	20.4 µM	32%	36%	4.9 µM	33%	17.4 µM	14%	0%	52.6 µM	120%	120%	–	–	active	inactive
Cc1c(C)c2c(c(C)c1OC(=O)OC(C)(C)C)CCC(C)(COc1ccc(C=C3SC(=O)N(C)C3=O)cc1)O2 (racemic) [F, (±) tertiobutyl(2,5,7,8-tetramethyl-2-[4-(3-methyl-2,4-dioxo-thiazolidin-5-ylidenemethyl)-phenoxymethyl]-chroman-6-yl)carbonate]	–	–	–	–	–	–	–	–	–	–	–	–	–	81%	66%	–	–	–	–
O=C1S/C(=C\c2ccc(O)cc2)C(=O)N1C/C=C/c1ccccc1 [Compound A, 5-(4-hydroxy-benzylidene)-3-(3-phenyl-allyl)-thiazolidine-2,4-dione]	84%	4.8 µM	82%	59%	10.1 µM	83%	91%	2.2 µM	37%	19.4 µM	43%	65%	5.2 µM	–	–	89%	63%	–	–
Cc1c(C)c2c(c(C)c1O)CCC(C)(CN1C(=O)S/C(=C\c3ccc(O)cc3)C1=O)O2 (racemic) [H, (±) 5-(4-hydroxy-benzylidene)-3-(6-hydroxy-2,5,7,8-tetramethyl-chroman-2-ylmethyl)-thiazolidine-2,4-dione]	102%	1.3 µM	87%	79%	5.7 µM	95%	95%	1.9 µM	51%	6.1 µM	64%	95%	3.4 µM	110%	103%	–	–	–	–
Cc1c(C)c2c(c(C)c1CCCCCCNC(=O)OC(C)(C)C)CCC(C)(COc1ccc(/C=C3\SC(=O)NC3=O)cc1)O2 (racemic) [C, (±) Tert-butyl(6-{2-[4-(2,4-dioxo-thiazolidin-5-ylidenemethyl)-phenoxymethyl]-2,5,7,8-tetramethyl-chroman-6-yl}-hexyl)-carbamate]	30%	8.8 µM	39%	77%	2.4 µM	55%	51%	2.1 µM	68%	6.4 µM	26%	24%	9.6 µM	–	–	85%	80%	–	–
CC1(CN2C(=O)S/C(=C\c3cc(Br)c(O)c(Br)c3)C2=O)CCCCC1 [L, reference compound]	65%	8.1 µM	69%	74%	8.8 µM	87%	53%	5.7 µM	81%	1.8 µM	47%	76%	9.3 µM	–	–	42%	30%	–	–
